Assay results as given in US20190160035A1, “METHOD OF TREATMENT” (QBIOTICS LIMITED, priority 2016, published 2019).

How the values were obtained:
[1] = tested on: soft tissue sarcoma (STS); assay: Example 6: treatment of soft tissue sarcoma with intratumoral Compound 1, tumor response; format: in vivo, dogs; settings: per dog, Compound 1 1.0 mg/mL intratumoral, first treatment
Source text: Dogs were selected for the study if they met the criteria in Table 1 (Example 1) but where the dog has at least one STS. Study dogs were managed with due regard for their welfare. All animals were client-owned, treated by Australian registered veterinarians, and cases managed under their direct supervision. An enrolled dog could be removed from the study prior to study completion under the following circumstances: • 1. If at any time during the study, in the opinion of the attending veterinarian, the dog's welfare is at risk due to non-response of the tumor to Compound 1 treatment or due to a serious adverse event, the veterinarian could elect to withdraw the dog from the study. Following withdrawal, the dog's attending veterinarian could then administer supportive treatment and veterinary care that they deem is appropriate and in the best interest of the animal. • 2. […]
• 1. […] The total calculated volume of the selected STS was confirmed as ≤12.5 cm3 (determined as ½×length (cm)×width (cm)×depth (cm)). • 5. The calculated dose of drug for the dog was confirmed as ≤0.25 mg Compound 1 per kg at the Day 0 visit (maximum dose of 5 mg Compound 1). • 6. The drug was provided to veterinarians as a 1 mg/mL Compound 1 formulation in ready to use form. • 7. […] Treated tumors were observed regularly and observations recorded at days 1, 7 (+2), 14 (+2) and 28 (+2) days post-treatment. • 10. […]

[2] = Example 2: body weights, clinical examinations and adverse events (VCOG-CTCAE); format: in vivo, dogs; design: key to Local swelling at treatment site: VCOG-CTCAE Grade classification / Pain associated with treatment site: VCOG-CTCAE Grade classification / Transient tachypnoea: VCOG-CTCAE Grade classification / Transient lethargy: VCOG-CTCAE Grade classification / Transient tachycardia: VCOG-CTCAE Grade classification / Transient elevated blood pressure reading: VCOG-CTCAE Grade classification / Transient salivation: VCOG-CTCAE Grade classification / Emesis: VCOG-CTCAE Grade classification / Wound sinus: VCOG-CTCAE Grade classification: ‘mild’ VCOG-CTCAE classification Grade 1 with no intervention required
Experimental: Body weights were collected on each enrolled dog at screening, immediately pre-treatment, at approximately 24 hours, 48 hours post-treatment, and at 7(+1) days, 14(+1) days and 21(+2) days post treatment. The percent bodyweight change is calculated as the difference between immediate pre-treatment and Day 21 (+2) post-treatment values. A positive value indicates weight gain, a negative value indicates weight loss.
Clinical parameters such as rectal temperature (° C.), heart rate (HR) per minute, respiratory rate (RR) per minute, capillary refill time (CRT) (sec), systolic and diastolic blood pressure (mmHg), and mucosal colour were collected on each enrolled dog at screening, immediately pre-treatment, at approximately 24 hours, 48 hours post-treatment, and at 7(±1), 14(±1) and 21(±2) days post treatment. With each parameter evaluated for trends over time, and in context with all other contemporaneously collected parameters, the clinical parameter data is deemed unremarkable for all trial dogs.
Dogs were evaluated for adverse events (AEs) on Days 0 (pre-treatment), 1, 2, 7(±1), 14(±1) and 21(±2) as well as interim timepoints if needed. An AE was defined as any unfavorable and unintended sign, symptom, or disease temporally associated with the use of Compound 1, whether or not related to the product (VCOG-CTCAE 2011).

[3] = tested on: cutaneous Mast Cell Tumor (MCT); assay: Example 3: long term follow up of cohort 1 dogs for tumor recurrence; format: in vivo
Experimental: The dogs of cohort 1 in Example 2, treated with 1.0 mg Compound 1 per mL, were followed up post-treatment.
Dog GCV-209 was treated by surgical removal of residual tumor soon after study completion (Day 21).

[4] = cohort 3, 0.2 mg/mL, out of 7 dogs

C/C=C(\C)C(=O)O[C@@H]1[C@@H](C)[C@@]2(O)[C@H]([C@@H]3C(C)(C)[C@]13OC(=O)[C@@H](C)CC)[C@@H]1O[C@]1(CO)[C@@H](O)[C@]1(O)C(=O)C(C)=C[C@H]12 [Compound 1, 12-tigloyl-13-(2-methylbutanoyl)-6,7-epoxy-4,5,9,12,13,20-hexahydroxy-1-tigliaen-3-one]
RECIST classification [1]: PR (partial response (PR, at least 30% decrease in the longest diameter of target lesion)) | Pain associated with treatment site: Incidence (%) ([2]; Grade 1, all patients (n = 27)): 14.8% | Pain associated with treatment site: No. of events ([2]; Grade 1, all patients (n = 27)): 4 | Pain associated with treatment site (oral analgesic): Incidence (%) ([2]; Grade 2, all patients (n = 27)): 22.2% | Pain associated with treatment site (oral analgesic): No. of events ([2]; Grade 2, all patients (n = 27)): 6 | Bilateral otitis externa (oral antibiotic): Incidence (%) ([2]; all patients (n = 27)): 3.7% | Bilateral otitis externa (oral antibiotic): No. of events ([2]; all patients (n = 27)): 1 | Bilateral otitis externa (oral antibiotic): VCOG-CTCAE Grade classification ([2]; all patients (n = 27)): 2 | Corneal ulcer (antibiotic ointment and oral analgesic): Incidence (%) ([2]; all patients (n = 27)): 3.7% | Corneal ulcer (antibiotic ointment and oral analgesic): No. of events ([2]; all patients (n = 27)): 1 | Corneal ulcer (antibiotic ointment and oral analgesic): VCOG-CTCAE Grade classification ([2]; all patients (n = 27)): 2 | Emesis: Incidence (%) ([2]; all patients (n = 27)): 7.4% | Emesis: No. of events ([2]; all patients (n = 27)): 2 | Emesis: VCOG-CTCAE Grade classification ([2]; all patients (n = 27)): 1 | Flatulence (oral antibiotic): Incidence (%) ([2]; all patients (n = 27)): 3.7% | Flatulence (oral antibiotic): No. of events ([2]; all patients (n = 27)): 1 | Flatulence (oral antibiotic): VCOG-CTCAE Grade classification ([2]; all patients (n = 27)): 2 | Local swelling at treatment site: Incidence (%) ([2]; all patients (n = 27)): 81.5% | Local swelling at treatment site: No. of events ([2]; all patients (n = 27)): 22 | Local swelling at treatment site: VCOG-CTCAE Grade classification ([2]; all patients (n = 27)): 1 | Number of AEs of ‘mild’ VCOG-CTCAE Grade 1 (no intervention required) ([2]; all patients (n = 27)): 52 | Number of AEs requiring minimal medical intervention or additional analgesic therapy ([2]; all patients (n = 27)): 12 | Pain associated with treatment site (oral analgesic): VCOG-CTCAE Grade classification ([2]; all patients (n = 27)): 2 | Seborrhoea (oral antibiotic): Incidence (%) ([2]; all patients (n = 27)): 3.7% | Seborrhoea (oral antibiotic): No. of events ([2]; all patients (n = 27)): 1 | Seborrhoea (oral antibiotic): VCOG-CTCAE Grade classification ([2]; all patients (n = 27)): 2 | Transient elevated blood pressure reading: Incidence (%) ([2]; all patients (n = 27)): 3.7% | Transient elevated blood pressure reading: No. of events ([2]; all patients (n = 27)): 1 | Transient elevated blood pressure reading: VCOG-CTCAE Grade classification ([2]; all patients (n = 27)): 1 | Transient lethargy: Incidence (%) ([2]; all patients (n = 27)): 18.5% | Transient lethargy: No. of events ([2]; all patients (n = 27)): 5 | Transient lethargy: VCOG-CTCAE Grade classification ([2]; all patients (n = 27)): 1 | Transient salivation: Incidence (%) ([2]; all patients (n = 27)): 3.7% | Transient salivation: No. of events ([2]; all patients (n = 27)): 1 | Transient salivation: VCOG-CTCAE Grade classification ([2]; all patients (n = 27)): 1 | Transient tachycardia: Incidence (%) ([2]; all patients (n = 27)): 7.4% | Transient tachycardia: No. of events ([2]; all patients (n = 27)): 2 | Transient tachycardia: VCOG-CTCAE Grade classification ([2]; all patients (n = 27)): 1 | Transient tachypnoea: Incidence (%) ([2]; all patients (n = 27)): 51.9% | Transient tachypnoea: No. of events ([2]; all patients (n = 27)): 14 | Transient tachypnoea: VCOG-CTCAE Grade classification ([2]; all patients (n = 27)): 1 | Wound infection (oral antibiotic): Incidence (%) ([2]; all patients (n = 27)): 7.4% | Wound infection (oral antibiotic): No. of events ([2]; all patients (n = 27)): 2 | Wound infection (oral antibiotic): VCOG-CTCAE Grade classification ([2]; all patients (n = 27)): 2 | Wound sinus: Incidence (%) ([2]; all patients (n = 27)): 3.7% | Wound sinus: No. of events ([2]; all patients (n = 27)): 1 | Wound sinus: VCOG-CTCAE Grade classification ([2]; all patients (n = 27)): 1 | Total number of AEs identified ([2]; all patients (n = 27), 15 event types): 64 | Clinical parameter data (temperature, HR, RR, CRT, blood pressure, mucosal colour) ([2]; all trial dogs, screening to Day 21): unremarkable | Number of dogs that lost weight ([2]; cohort 1, 1.0 mg/mL): 3 | Number of dogs that gained weight during the trial ([2]; cohort 1, 1.0 mg/mL, out of 10 dogs, pre-treatment to Day 21): 6 | Largest recorded weight loss ([2]; cohort 1, dog NVC-103): 3.9% | Number of dogs that lost body weight ([2]; cohort 2, 0.5 mg/mL, out of 10 dogs): 9 | Largest recorded weight loss ([2]; cohort 2, dog GCV-204): 5.6% | Number of dogs that gained weight [2, 4]: 3 | Number of dogs that lost weight [2, 4]: 4 | Largest recorded weight loss ([2]; cohort 3, dog NVC-304): 9.2% | Body weight gain ([2]; dog NVC-102, cohort 1): 15% | Pain associated with treatment site: VCOG-CTCAE Grade classification ([2]; no intervention, all patients (n = 27)): 1 | Tumor recurrence at the treatment site during the post treatment examination period ([3]; 8 dogs, examined out to 11.9 to 15.0 months post treatment): No tumor recurrence | Tumor recurrence at case follow-up post treatment ([3]; cohort 1 dogs (1.0 mg/mL), one value per dog and examination, months 1-14 post treatment): Nil | Day on which tumor recurrence was reported ([3]; dog NVC-110, 42 days after study completion): 63 days
